Results as given in patent US20230174488A1 (priority 2020, published 2023).
Converted amounts (≈) assume the structure as drawn. Like-named read-outs stand apart in the source and are kept apart here.

Assays:
SARS-CoV-2 M^PRO [1] = biological target: T1, SARS-CoV-2 M^PRO (Severe acute respiratory syndrome coronavirus 2, UniProt P0DTD1); assay: biochemical; assay type: biochemical
SARS-CoV-2 = assay: In vitro antiviral cell-based assay (live SARS-CoV-2 IFA) in Vero cells; settings: Severe acute respiratory syndrome coronavirus 2, MOI ~0.0125, 24 hpi
in vitro [2] = settings: mouse
Caco-2 permeability = assay type: in vitro ADME; settings: human, Caco-2, pH 7.4
Description: Medium was refreshed every 4 \~5 days until the 21st to 28th day for confluent cell monolayer formation. The transport buffer was HBSS with 10 mM HEPES at pH=7.40±0.05. […] Final DMSO concentration was adjusted to less than 1%. The plate was incubated for 2 h in the CO2 incubator at 37±1° C., with 5% CO2 at saturated humidity without shaking. All the samples were then mixed with acetonitrile containing internal standard and centrifuged at 3200 xg for 10 min. For nadolol and metoprolol, 100 µL supernatant solution was diluted with 300 µL distilled water for LC-MS/MS analysis. For digoxin and test compounds, 100 µL supernatant solution was diluted with 100 µL distilled water for LC-MS/MS analysis. Concentrations of test and control compounds in starting solution, donor solution, and receiver solution were quantified by LC-MS/MS methodologies, using peak area ratio of analyte/internal standard. After transport assay, lucifer yellow rejection assay was applied to determine the Caco-2 cell monolayer integrity. The apparent permeability coefficient Papp (cm/s) was calculated using the equation:
where d/Cr/6t is the cumulative concentration of compound in the receiver chamber as a function of time (µM/s); Vr is the solution volume in the receiver chamber (0.075 mL on the apical side, 0.25 mL on the basolateral side); A is the surface area for the transport, i.e. 0.0804 cm^2 for the area of the monolayer; C0 is the initial concentration in the donor chamber (µM).
The efflux ratio was calculated using the equation:
where Vd is the volume in the donor chambers (0.075 mL on the apical side, 0.25 mL on the basolateral side); Cd and Cr are the final concentrations of the transport compound in donor and receiver chambers, respectively.

physchem = settings: water, kinetic from dmso stock
CYP 1A2 = biological target: T2, CYP 1A2 (Homo sapiens, UniProt P05177); assay: CYP inhibition assay, 1A2
T2 sequence (P05177 1-516): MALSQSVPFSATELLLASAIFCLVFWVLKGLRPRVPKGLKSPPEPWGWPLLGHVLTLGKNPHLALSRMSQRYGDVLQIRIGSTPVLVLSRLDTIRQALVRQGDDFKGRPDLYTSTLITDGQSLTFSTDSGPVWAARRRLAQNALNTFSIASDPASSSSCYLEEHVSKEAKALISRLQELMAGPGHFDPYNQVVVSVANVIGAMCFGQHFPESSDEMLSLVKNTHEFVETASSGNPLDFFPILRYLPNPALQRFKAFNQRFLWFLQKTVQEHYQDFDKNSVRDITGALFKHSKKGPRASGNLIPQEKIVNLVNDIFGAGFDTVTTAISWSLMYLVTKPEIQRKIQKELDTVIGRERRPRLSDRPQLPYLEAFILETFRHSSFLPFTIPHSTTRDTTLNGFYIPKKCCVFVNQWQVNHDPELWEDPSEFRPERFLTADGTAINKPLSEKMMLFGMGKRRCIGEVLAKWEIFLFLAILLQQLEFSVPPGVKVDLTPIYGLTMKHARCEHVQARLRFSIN
Description: (§1) The following reagents/reactants were used in the assay: water was purified by ELGA Lab purification systems, buffer solution: PB (100 mM), MgCl2 (33 mM), organic solvents were AR or HPLC grade, CYP substrates: phenacetin (10 µM, 25 µL, 1A2), diclofenac (5 µM, 25 µL, 2C9), S-mephenytoin (30 µM, 75 µL, 2C19), dextromethorphan (5 µM, 12,5, 2D6), and midazolam (2 µM, 10 µL, 3A4), stock solutions were prepared in MeOH (20, 10, 20, 20, and 10 mM, respectively). Positive controls: α-naphthoflavone, sulfaphenazole, (+)-N-3-benzylnirvanol, quinidine, and ketoconazole, final concentration was 3 µM in MeOH (90 µL), stock solutions were prepared in DMSO (3 mM for all the inhibitors). Test compounds were evaluated using five conc. points at the range of 15-5,000 µM. […] Main procedure: working solution (100×) of the test compound and standard inhibitors were prepared, microsomes were pulled out of the -80° C. freezer to thaw on ice, labeled the date and put it back to the freezer immediately after use. Substrates (20 µL) and PB (20 µL) were added to corresponding wells and Blank wells, respectively. […] HLM working solution (158 µL) was added to all wells of the incubation plate. Plate was pre-warmed for about 10 min at 37° C. in a water bath, then NADPH (20 µL) was added to all incubation wells. CYPs were mixed and incubated for 10 min at 37° C. in a water bath. The reaction was terminated at the time point by adding a 400 µL cold stop solution (200 ng/mL tolbutamide and labetalol in ACN). Samples were centrifuged at 4000 rpm for 20 minutes to precipitate protein. Supernatant (200 µL) was transferred to 100 µL HPLC water and shaken for 10 min, then samples were subjected for LC/MS/MS analysis. XL fit was used to plot the percent of vehicle control vs the test compound concentrations, and for non-linear regression analysis of the data. IC50 values were determined using 3- or 4-parameter logistic equations.

CYP 2C9 = CYP 2C9 (Homo sapiens, UniProt P11712); assay: biochemical
Description: as §1

Plasma stability, mice = assay type: in vitro ADME; settings: mouse
Description: (§2) Propantheline bromide was used as a reference compound in this assay. The pooled frozen plasma was thawed in a water bath at 37° C. prior to experiment. Plasma was centrifuged at 4000 rpm for 5 min and the clots were removed if any. The pH will be adjusted to 7.4 ± 0.1 if required.
(§3) Preparation of compounds: 1 mM intermediate solution was prepared by diluting 10 µL of the stock solution with 90 µL DMSO; 1 mM intermediate of positive control Propantheline was prepared by diluting 10 µL of the stock solution with 90 µL ultrapure water. For test compounds, 100 µM dosing solution was prepared by diluting 10 µL of the intermediate solution (1 mM) with 90 µL DMSO. […] 98 µL of blank plasma was spiked with 2 µL of dosing solution (100 µM) to achieve 2 µM of the final concentration in duplicate and samples were Incubated at 37° C. in a water bath. […] Centrifuged sample plates at 4,000 rpm for 10 min. An aliquot of supernatant (50 µL) was transferred from each well and mixed with 100 µL ultra-pure water. The samples were shaken at 800 rpm for about 10 min before submitting to LC-MS/MS analysis. The % remaining of test compound after incubation in plasma was calculated using following equation:
(§4) where PAR is the peak area ratio of analyte versus internal standard (IS).

Plasma stability, human = assay type: in vitro ADME; settings: pH 7.4
Description: as §2, §3, §4

[3] = Microsomal stability, mouse liver microsomes; assay type: in vitro ADME; settings: CD-1, mouse
Description: (§5) Cold ACN, including 100 ng/ml tolbutamide and 100 ng/ml labetalol as internal standard (IS), was used for the stop solution. Compound or control working solution (10 µl per well) was added to all plates (T0, T5, T10, T20, T30, T60, and NCF60), except the matrix blank. Dispensed microsome solution (80 µl per well) was added to every plate by Apricot and the mixture of microsome solution and compound was incubated at 37° C. for approximately 10 min. After prewarming, a dispensed NADPH regenerating system (10 µl per well) was added to every plate by Apricot to start a reaction. The solution was then incubated at 37° C. Stop solution (300 µl per well, 4° C.) was then added to terminate the reaction. The sampling plates were shaken for approximately 10 minutes. The samples were centrifuged at 4,000 rpm. for 20 min at 4° C. While centrifuging, new 8×96-well plates were loaded with 300 µl HPLC water, and then 100 µl supernatant was transferred and mixed for liquid chromatography-tandem mass spectrometry (LC/MS/MS).

PAMPA permeability assay = assay type: in vitro ADME
Description: 2.6 g KH2PO4 and 18.5 g K3PHO4×3H2O were dissolved in 1000 mL of ultra-pure water, mixed thoroughly. The pH was adjusted to 7.40 ± 0.05, using either 1 M sodium hydroxide or 1 M hydrochloric acid. 0.2 mM working solution was prepared by diluting 10 mM stock solution with DMSO. 10 µM donor solution (5% DMSO) was prepared by diluting 20 µL of working solution with 380 µL PBS. 150 µL of 10 µM donor solutions to each well of the donor plate, whose PVDF membrane was precoated with 5 µL of 1% lecithin/dodecane mixture. Duplicates were prepared. 300 µL of PBS was added to each well of the PTFE acceptor plate. The donor plate and acceptor plate were combined together and incubated for 4 h at room temperature with shaking at 300 rpm. […] Preparation of acceptor sample: the plate was removed from the incubator. 270 µL solution was transferred from each acceptor well and mixed with 130 µL ACN (containing internal standard) as acceptor sample. […] Acceptor samples and donor samples were all analyzed by LC-MS/MS.

CYP 2C19 = CYP 2C19 (Homo sapiens, UniProt P33261); assay: CYP inhibition assay, 2C19
Description: as §1

CYP 2D6 = CYP 2D6 (Homo sapiens, UniProt P10635); assay: CYP inhibition assay, 2D6
Description: as §1

CYP 3A4 = CYP 3A4 (Homo sapiens, UniProt P08684); assay: CYP inhibition assay, 3A4
Description: as §1

[4] = assay type: in vitro ADME; settings: human, microsomes
Description: as §5

in vitro [5] = settings: human
[6] = plasma
[7] = mouse, plasma
in vitro [8] = settings: African green monkey
SARS-CoV-2 M^PRO [9] = biological target: T1, SARS-CoV-2 M^PRO; assay: Crystal structure of ligand bound to SARS-CoV-2 M^pro; settings: X-ray, complex with SARS-CoV-2 M^pro
[10] = Cytotoxicity (CC50) in Vero cells; settings: African green monkey
[11] = In vitro potency data, 30 min pre-incubation, 25 nM M^pro, 25 µM substrate, read-out: IC50

Chain of CYP 3A4 (P08684 whole entry): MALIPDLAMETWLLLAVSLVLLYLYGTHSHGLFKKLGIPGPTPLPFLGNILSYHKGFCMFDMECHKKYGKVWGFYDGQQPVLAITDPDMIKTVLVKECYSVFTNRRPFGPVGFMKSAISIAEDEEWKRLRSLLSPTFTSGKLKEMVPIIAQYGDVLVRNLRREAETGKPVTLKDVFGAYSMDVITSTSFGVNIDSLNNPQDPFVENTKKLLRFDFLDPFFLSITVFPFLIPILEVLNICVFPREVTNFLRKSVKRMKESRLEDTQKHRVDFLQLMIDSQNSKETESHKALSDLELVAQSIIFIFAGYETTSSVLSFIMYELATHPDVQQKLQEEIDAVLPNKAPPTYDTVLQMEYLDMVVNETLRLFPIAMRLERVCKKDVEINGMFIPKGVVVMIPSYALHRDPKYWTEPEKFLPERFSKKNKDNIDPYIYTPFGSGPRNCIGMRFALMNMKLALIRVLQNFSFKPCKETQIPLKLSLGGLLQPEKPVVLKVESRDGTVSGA
Chain of CYP 2C9 (P11712 whole entry): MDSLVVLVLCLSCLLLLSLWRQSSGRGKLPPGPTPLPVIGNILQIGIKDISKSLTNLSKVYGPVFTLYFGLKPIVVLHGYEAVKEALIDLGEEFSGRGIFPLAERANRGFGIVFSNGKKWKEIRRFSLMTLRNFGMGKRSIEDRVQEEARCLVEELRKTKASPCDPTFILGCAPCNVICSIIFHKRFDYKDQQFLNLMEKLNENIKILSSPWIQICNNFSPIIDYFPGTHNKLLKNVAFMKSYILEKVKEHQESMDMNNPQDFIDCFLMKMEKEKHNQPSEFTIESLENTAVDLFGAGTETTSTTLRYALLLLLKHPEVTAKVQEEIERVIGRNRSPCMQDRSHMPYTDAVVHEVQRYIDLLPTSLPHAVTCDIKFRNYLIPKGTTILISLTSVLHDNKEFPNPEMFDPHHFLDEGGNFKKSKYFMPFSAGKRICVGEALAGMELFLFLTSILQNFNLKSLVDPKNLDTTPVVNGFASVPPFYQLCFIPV
Chain of CYP 2C19 (P33261 whole entry): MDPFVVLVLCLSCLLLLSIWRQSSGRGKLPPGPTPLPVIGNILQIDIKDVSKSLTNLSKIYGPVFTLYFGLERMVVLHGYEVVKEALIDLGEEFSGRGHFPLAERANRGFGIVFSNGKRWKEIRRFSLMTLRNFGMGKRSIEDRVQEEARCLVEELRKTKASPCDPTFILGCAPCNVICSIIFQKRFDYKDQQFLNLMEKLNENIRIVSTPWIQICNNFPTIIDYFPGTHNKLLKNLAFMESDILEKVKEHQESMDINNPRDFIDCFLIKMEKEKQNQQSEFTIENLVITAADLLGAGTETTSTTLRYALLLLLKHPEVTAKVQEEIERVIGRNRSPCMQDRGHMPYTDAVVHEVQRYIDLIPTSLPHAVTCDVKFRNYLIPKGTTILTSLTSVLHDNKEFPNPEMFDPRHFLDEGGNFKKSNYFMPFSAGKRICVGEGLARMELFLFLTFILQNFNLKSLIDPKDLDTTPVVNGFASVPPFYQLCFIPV
Chain of CYP 2D6 (P10635 whole entry): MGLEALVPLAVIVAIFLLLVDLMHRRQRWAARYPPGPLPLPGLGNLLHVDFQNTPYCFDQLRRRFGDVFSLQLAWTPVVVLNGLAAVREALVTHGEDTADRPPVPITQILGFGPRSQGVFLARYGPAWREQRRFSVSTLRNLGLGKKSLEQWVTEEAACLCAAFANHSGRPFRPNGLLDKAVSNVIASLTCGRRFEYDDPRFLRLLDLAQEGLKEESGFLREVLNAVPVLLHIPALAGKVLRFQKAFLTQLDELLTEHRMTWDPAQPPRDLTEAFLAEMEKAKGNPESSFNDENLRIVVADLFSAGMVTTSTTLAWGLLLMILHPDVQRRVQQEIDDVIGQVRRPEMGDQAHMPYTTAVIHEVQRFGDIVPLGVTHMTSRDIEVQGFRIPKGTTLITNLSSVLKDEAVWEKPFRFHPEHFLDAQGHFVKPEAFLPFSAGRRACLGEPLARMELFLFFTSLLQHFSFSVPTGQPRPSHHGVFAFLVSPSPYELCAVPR

O=C(NC1CCC(F)(F)CC1)C(c1cncnc1)N(C(=O)CCl)c1ccc(-c2cncs2)cc1 (single isomer, unassigned) [2-Chloro-N-(2-((4,4-difluorocyclohexyl)amino)-2-oxo-1-(pyrimidin-5-yl)ethyl)-N-(4-(thiazol-5-yl)phenyl)acetamide]
IC50 (SARS-CoV-2 M^PRO [1]; [11]): 50 nM
IC50 (SARS-CoV-2 M^PRO [1]; SARS-CoV-2 M^pro IC50′ nM, General summary table): 50 nM
EC50 (SARS-CoV-2): 11.4 µM

O=C(NC1CCC(F)(F)CC1)C(c1cncnc1)N(C(=O)CCl)c1ccc(-c2ccno2)cc1 (single isomer, unassigned) [INSCoV-600J(1), 2-Chloro-N-(2-((4,4-difluorocyclohexyl)amino)-2-oxo-1-(pyrimidin-5-yl)ethyl)-N-(4-(isoxazol-5-yl)phenyl)acetamide]
IC50 (SARS-CoV-2 M^PRO [1]; [11]): 63 nM
EC50 (SARS-CoV-2): 14.2 µM

CC(C(=O)NC1CCC(F)(F)CC1)(c1cncnc1)N(C(=O)CCl)c1ccc(-c2ccno2)cc1 (single isomer, unassigned) [INSCoV-601P(1A), 2-(2-Chloro-N-(4-(isoxazol-5-yl)phenyl)acetamido)-N-(4,4-difluorocyclohexyl)-2-(pyrimidin-5-yl)propanamide]
recovery (in vitro [2]): 2.8%
Papp A→B at 2 h, 2 µM (Caco-2 permeability): < 4.8 nm/s
efflux ratio at 2 h, 2 µM (Caco-2 permeability): > 0.489
solubility kinetic (physchem): 142 µM (≈ 71.6 µg/mL)
IC50 (CYP 1A2): > 50 µM
IC50 (CYP 2C9): > 50 µM
IC50 (SARS-CoV-2 M^PRO [1]; [11]): 140 nM
half-life at 2 µM (Plasma stability, mice; pH 7.4): 13.1 min
half-life at 2 µM (Plasma stability, human): 16.3 min
microsomal CLint [3]: 102 µL/min/mg
Papp at 4 h, 10 µM (PAMPA permeability assay; pH 7.4): 6.26 nm/s
IC50 (CYP 2C19): > 50 µM
IC50 (CYP 2D6): 6.12 µM
IC50 (CYP 3A4): 3.62 µM
microsomal CLint [4]: 66 µL/min/mg
recovery (in vitro [5]): 1.3%

O=C(NC1CCC(F)(F)CC1)[C@@H](c1cncnc1)N(C(=O)[C@@H](F)Cl)c1ccc(-c2cncs2)cc1 (single isomer, unassigned) [INSCoV-614(1B), 2-Chloro-N-(2-((4,4-difluorocyclohexyl)amino)-2-oxo-1-(pyrimidin-5-yl)ethyl)-2-fluoro-N-(4-(thiazol-5-yl)phenyl)acetamide]
solubility kinetic (physchem): 164 µM (≈ 85.9 µg/mL)
IC50 (CYP 1A2): 24.3 µM
IC50 (CYP 2C9): 15.6 µM
IC50 (SARS-CoV-2 M^PRO [1]; [11]): 60 nM
PPB, human, % Bound [6]: 70.59%
Stability in plasma (in words) (Plasma stability, mice): significantly improved stability in plasma
Plasma stability, T½, min, mice (Plasma stability, mice; 2 µM, pH 7.4): >289.1 min
half-life at 2 µM (Plasma stability, mice; pH 7.4): > 289 min
Plasma stability, T½, min, human (Plasma stability, human; 2 µM): >289.1 min
half-life at 2 µM (Plasma stability, human): > 289 min
PAMPA, Mean Pe (PAMPA permeability assay; 4 h, 10 µM, pH 7.4): 1.88 nm/s
Papp at 4 h, 10 µM (PAMPA permeability assay; pH 7.4): 1.88 nm/s
IC50 (CYP 2C19): 9.5 µM
PPB, mice, % Bound [7]: 83.78%
IC50 (CYP 2D6): 6.5 µM
IC50 (CYP 3A4): 1.45 µM
EC50 (SARS-CoV-2): 2.23 µM
CC50 at 24 h (in vitro [8]): > 25 µM

O=C(NC1CCC(F)(F)CC1)[C@@H](c1cncnc1)N(C(=O)[C@@H](F)Cl)c1ccc(-c2ccno2)cc1 (single isomer, unassigned) [INSCoV-614A(2A), 2-Chloro-N-(2-((4,4-difluorocyclohexyl)amino)-2-oxo-1-(pyrimidin-5-yl)ethyl)-2-fluoro-N-(4-(isoxazol-5-yl)phenyl)acetamide]
IC50 (SARS-CoV-2 M^PRO [1]; [11]): 180 nM
EC50 (SARS-CoV-2): 4.25 µM

CCN(CC)CCCC(C)Nc1ccnc2cc(Cl)ccc12 (stereo not drawn) [Chloroquine, chloroquine, reference compound]
EC50 (SARS-CoV-2): 7.35 µM

N#Cc1cc(OC(F)(F)F)ccc1N(C(=O)CCl)C(C(=O)NC1CCC(F)(F)CC1)c1cncnc1 (stereo not drawn) [INSCoV-517A, 2-chloro-N-(2-cyano-4-(trifluoromethoxy)phenyl)-N-(2-((4,4-difluorocyclohexyl)amino)-2-oxo-1-(pyrimidin-5-yl)ethyl)acetamide]
IC50 (SARS-CoV-2 M^PRO [1]; [11]): 90 nM
EC50 (SARS-CoV-2): 11.1 µM

N#Cc1cc(OC(F)(F)F)ccc1N(C(=O)CCl)C(C(=O)NC1CCCCC1)c1cccnc1 (stereo not drawn) [INSCoV-517]
IC50 (SARS-CoV-2 M^PRO [1]; [11]): 240 nM
EC50 (SARS-CoV-2): 3.22 µM
CC50 at 24 h (in vitro [8]): > 50 µM

O=C(NC1CCC(F)(F)CC1)C(c1cncnc1)N(C(=O)CCl)c1ccc(-c2cncs2)cc1 (stereo not drawn) [INSCoV-600K, 2-Chloro-N-(2-((4,4-difluorocyclohexyl)amino)-2-oxo-1-(pyrimidin-5-yl)ethyl)-N-(4-(thiazol-5-yl)phenyl)acetamide]
IC50 (SARS-CoV-2 M^PRO [1]; [11]): 78 nM
EC50 (SARS-CoV-2): 14.5 µM

O=C(NC1CCC(F)(F)CC1)C(c1cnccn1)N(C(=O)CCl)c1ccc(-c2cncs2)cc1 (stereo not drawn) [INSCoV-601G, 2-Chloro-N-(2-((4,4-difluorocyclohexyl)amino)-2-oxo-1-(pyrazin-2-yl)ethyl)-N-(4-(thiazol-5-yl)phenyl)acetamide]
IC50 (SARS-CoV-2 M^PRO [1]; [11]): 80 nM
EC50 (SARS-CoV-2): 10.2 µM

O=C(NC1CCC(F)(F)CC1)[C@@H](c1cnccn1)N(C(=O)CCl)c1ccc(-c2ccns2)cc1 [INSCoV-601I(l)]
Binding mode in crystal structure (SARS-CoV-2 M^PRO [9]): covalently bound to Cys145 residue of SARS-CoV-2 M^Pro
IC50 (SARS-CoV-2 M^PRO [1]; [11]): 50 nM
EC50 (SARS-CoV-2): 14.1 µM

O=C(NC1CCC(F)(F)CC1)C(c1cnccn1)N(C(=O)CCl)c1ccc(-c2ccns2)cc1 (stereo not drawn) [INSCoV-601I, 2-Chloro-N-(2-((4,4-difluorocyclohexyl)amino)-2-oxo-1-(pyrazin-2-yl)ethyl)-N-(4-(isothiazol-5-yl)phenyl)acetamide]
IC50 (SARS-CoV-2 M^PRO [1]; [11]): 62 nM
EC50 (SARS-CoV-2): 11.1 µM

CC(C(=O)NC1CCC(F)(F)CC1)(c1cnccn1)N(C(=O)CCl)c1ccc(-c2ccns2)cc1 (stereo not drawn) [INSCoV-601N, 2-(2-Chloro-N-(4-(isothiazol-5-yl)phenyl)acetamido)-N-(4,4-difluorocyclohexyl)-2-(pyrazin-2-yl)propanamide]
recovery (in vitro [2]): 0.1%
Papp A→B at 2 h, 2 µM (Caco-2 permeability; A to B, 2.00 µM, pH 7.40, read-out: Caco-2, Mean Papp,, A to B): < 0.434 nm/s
solubility kinetic (physchem): < 1.56 µM
IC50 (CYP 1A2): 24.9 µM
IC50 (CYP 2C9): 3.25 µM
IC50 (SARS-CoV-2 M^PRO [1]; [11]): 120 nM
half-life at 2 µM (Plasma stability, mice; pH 7.4): 21.1 min
half-life at 2 µM (Plasma stability, human): 32.6 min
microsomal CLint [3]: 531 µL/min/mg
Papp at 4 h, 10 µM (PAMPA permeability assay; pH 7.4, pH 7.40, 4 h, read-out: PAMPA, Mean Pe): 155 nm/s
IC50 (CYP 2C19): 5.65 µM
IC50 (CYP 2D6): 0.706 µM
IC50 (CYP 3A4): 0.218 µM
microsomal CLint [4]: 169 µL/min/mg
recovery (in vitro [5]): 0.2%

CC1(C)OCc2cc(N(C(=O)CCl)C(C(=O)Nc3cncc4ccccc34)c3ccno3)cnc21 (stereo not drawn) [INSCoV-704]
IC50 (SARS-CoV-2 M^PRO [1]; [11]): 19400 nM

CNC(=O)c1cc(C)c(NC(=O)C(c2cncnc2)N(C(=O)CCl)c2ccc(-c3cnco3)cc2)c(Cl)c1 (stereo not drawn) [INSCoV-6000, 3-chloro-4-[[2-(N-(2-chloroacetyl)-4-oxazol-5-yl-anilino)-2-pyrimidin-5-yl-acetyl]amino]-N,5-dimethyl-benzamide]
IC50 (SARS-CoV-2 M^PRO [1]; [11]): 1090 nM

Cc1cccc(C)c1OCC(=O)N[C@@H](Cc1ccccc1)[C@@H](O)C[C@H](Cc1ccccc1)NC(=O)[C@H](C(C)C)N1CCCNC1=O [Lopinavir, lopinavir, reference compound]
CC50 at 24 h [10]: > 50 µM
EC50 (SARS-CoV-2): 13.9 µM
